Columns and labels:
PWR-1E cells [1] = test: Antiproliferation assay, PWR-1E cells (Example 48); assay type: cell-based; details: read-out: IC50 PWR-1E cell
Method: To determine the effect of lonidamine and analogs thereof on cell proliferation, the antiproliferative activity of these compounds was tested in a multi-well Alamar Blue based assay (at 2 h and 3 days). Cell growth in the presence and absence of the test compound (compounds 1-22) was compared, as measured by a fluorescence plate reader at excitation 550 nm and emission 590 nm (see Biosource International Inc., Tech Application Notes, Use of Alamar Blue in the measurement of Cell Viability and Toxicity, Determining IC50). H460 cells (ATCC HTB-177 ([…]), 4,000 cells/well/200 μl) and LNCap cells (ATCC CRL-1740, 6,000 cells/well/200 μl) were seeded in a 96 well plate in RPMI medium (Invitrogen Corporation, Carlsbad, Calif.). After 24 hours, these plates were divided into 3 groups—Control group, 2 h treatment group and 3 day treatment group. In the 2 h treatment group, after 2 h the cells were rinsed to remove the test compound and incubated for 3 days, followed by staining with AlamarBlue. The cells in the 3 day treatment group were incubated for 3 days, followed by staining with AlamarBlue. In the Control group, AlamarBlue was added to the plate at (i) day 0 and (ii) day 3 and measured to establish the control reading.
The effect of lonidamine and analogs thereof on cell proliferation in PWR-1E cells (ATCC CRL-11611) was determined in an antiproliferative assay using PWR-1E cells (5000 cells/well) in Keratinocyte SFM medium (Gibco Products, Invitrogen Corporation, Carlsbad, Calif.) according to the procedure detailed in Example 47 above.

PC3 cells = test: Antiproliferation assay 3 days, PC3 cells; assay type: cell-based, human; details: 3 day treatment; read-out: PC-3 cell line IC50
Method: To determine the effect of lonidamine analogs thereof on cell proliferation, the antiproliferative activity of these compounds was tested in a multi-well Alamar Blue based assay (at 3 days). Cell growth in the presence and absence of the test compound was compared, as measured by a fluoresence plate reader at excitation 550 nm and emission 590 nm (see Biosource International Inc., Tech Application Notes, Use of Alamar Blue in the measurement of Cell Viability and Toxity, Determining IC50). The following cell lines were tested: PWR-1E cells ((ATCC CRL-11611), 3500 cells/well/200 μl in Keratinocyte SFM medium (Gibco Products, Invitrogen Corporation, Carlsbad, Calif.)); DU-145 cells ((ATCC HTB-81), 4000 cells/well/200 μl in MEM Eagles medium (ATCC, Manassas, Va.)); PC3 cells ((ATCC CRL-1435), 4000 cells/200 μl in Modified HAM's F12 medium (ATCC, Manassas, Va.)); PNt2 cells ((Sigma-Aldrich, 95012613-1 VL), 4000 cells/well/200 μl in RPMI medium (Gibco Products, Invitrogen Corporation, Carlsbad, Calif.), BPH-1 ((DSMZ ACC-143), 4000 cells/well/200 μl in RPMI medium (Gibco Products, Invitrogen Corporation, Carlsbad, Calif), and NCI-H460 cells ((ATCC HTB-177), 4000 cells/well/200 μl in RPMI medium (Gibco Products, Invitrogen Corporation, Carlsbad, Calif.)). The cells were seeded in a 96 well plate in a medium specified above. After 24 hours, these plates were divided into 2 groups—Control group and 3 day treatment group. A test compound was added to each plate in the treatment groups at concentrations of […] as tabulated in Table 1 (in 2 μl 1 of 100% DMSO, final DMSO concentration 1% in all wells). For NCI-H460 cells, test compounds were added to each plate in the treatment groups at concentrations of 600, 300, 100, 30, 10, 3, and 1 μM (in 2 μl of 100% DMSO, final DMSO concentration 1% in all wells). The cells in the 3 day treatment group were incubated for 3 days, followed by staining with AlamarBlue. In the Control group, AlamarBlue was added to the plate at (i) day 0 and (ii) day 3 and measured to establish the control reading. […] For the NCI-H460 cells, the capacity of the cells to proliferate was measured 5 hours after addition of AlamarBlue using the same fluorescence plate reader as stated above.

PWR-1E cells [2] = test: BrdU-TUNEL apoptosis assay; assay type: cell-based; details: for % Non-apoptotic cells / % apoptotic cells: PWR-1E cells, 24 h
Method: The effect of compound 1 (as described in Example 1 above) on apoptosis was determined as follows. PWR-1E cells (2×10^5 cells/ml/well) were seeded in a 24 well plate. The culture media were removed after 24 h, the cells were rinsed with PBS buffer (200 μL) and incubated (5 min, 37° C.) with a solution of Guava Viacount CDR in PBS (1:3 v/v). Media (750 μL) containing at least 5% FBS was added to each well, the cells released by repeated pipeting, centrifuged, and the supernatant aspirated. The cells were resuspended in PBS buffer (150 μL) and fixed by incubating (60 min, 4° C.) with 4% paraformaldehyde in PBS. The cells were centrifuged, and the supernatant removed to a final volume of 15 μL. The cell pellets were resuspended, followed by dropwise addition of 200 μl of ice-cold ethanol (70%), and the cells incubated at −20° C. at least for 2 hr. The cells were centrifuged, the supernatant removed, washed, and incubated with the DNA labeling mix (37° C., 60 min). The cells were washed, incubated (30 min) with anti-BrdU staining mix, washed again and analyzed on a Guava PCA-96 system (Guava Technologies, 25801 Industrial Boulevard, Hayward Calif. 94545-2991, USA).

Structure (SMILES): O=C(NO)c1nn(Cc2ccc(Cl)cc2Cl)c2ccccc12 [Compound 1]
- IC50 (PWR-1E cells [1]): 4 µM
- IC50 (PC3 cells): 15 µM
- apoptosis in PWR1E cells (PWR-1E cells [2]; PWR1E cells): induces apoptosis
- % Non-apoptotic cells (PWR-1E cells [2]; 3.1 μM): 90%
- % apoptotic cells (PWR-1E cells [2]; 3.1 μM): 10%
- % Non-apoptotic cells (PWR-1E cells [2]; 6.2 μM): 88%
- % apoptotic cells (PWR-1E cells [2]; 6.2 μM): 12%
- % Non-apoptotic cells (PWR-1E cells [2]; 12.5 μM): 78%
- % apoptotic cells (PWR-1E cells [2]; 12.5 μM): 22%
- % Non-apoptotic cells (PWR-1E cells [2]; 25 μM): 48%
- % apoptotic cells (PWR-1E cells [2]; 25 μM): 52%
